Legend:
[1] = system: HSF cells; test: In vitro wound healing (migration) assay, HSF; type: cell-based, Human; details: SC17-2 concentrations exceeding 10 μg/mL, 16 h
[2] = system: BALB/c mice; test: Mouse full-thickness skin wound healing; type: in vivo; details: for wound area: 20 μL daily on wound, relative to day 1, mean ± SEM, n = 7
Procedure: Mice were anaesthetised with sodium pentobarbital 2 % by intraperitoneal injection (0.1 mL/20 g mouse body weight), and after anaesthesia, hair was removed from the back using depilatory cream and power scissors, and circular full-thickness skin wounds of the same diameter were marked and created on the back of each mouse using circular stamps and red sealant. The mouse wounds were then covered and infiltrated daily with 20 μL of different concentrations of SC17-2 or 20 ng/mL VEGF, and an equal volume of saline was used in the control group. The mice were anaesthetised by isoflurane nebulisation (concentration 2 %) every two days and then placed under an optical camera to photograph the effect of the wound area.
Sodium pentobarbital (2 %) was utilised for the anaesthetisation of mice by intraperitoneal injection (0.1 mL/20 g of mouse body weight). Subsequent to the induction of anaesthesia, the dorsal hair was removed using depilatory creams and electric scissors. Thereafter, circular full skin wounds of the same diameter were marked and created on the back of each mouse using circular stamps and red stencils. Mouse wounds were then covered and infiltrated daily with 20 μL of different concentrations of SC17-2 or 20 ng/mL of VEGF, and an equal volume of saline was used in the control group. Mice were anaesthetised every two days using isoflurane nebulisation followed by anaesthesia (concentration 2 %), after which they were placed under an optical camera to photograph the effect of wound area. After 13 days of treatment, mice were anaesthetised using isoflurane nebulisation followed by injection of an overdose of sodium pentobarbital to euthanise the mice (200 mg/kg). The wounds and their surrounding tissues were then excised for histopathological evaluation (Masson and H&E staining) and analysed by Enface immunofluorescence staining.

[3] = system: p-ERK/ERK; test: Western blot p-ERK/ERK in HaCaT; type: cell-based, Human; details: SC17-2 20 μg/mL, 24 h (16 h elsewhere in the source), n = 3
Procedure: (§1) HaCaT was inoculated in 12-well plates (2 × 10^5 cells/well) and cultured for 24 h. Afterwards, HaCaT cells were treated with equal amounts of VEGF, SC17-2, and PBS for 16 h. Cells were washed with PBS, after which the samples were collected and added to 1 mL of RIPA lysate containing protease inhibitors and phosphatase inhibitors and placed on ice for 30 min. Allowed to be after sufficient lysis, the supernatant was centrifuged and collected to determine the protein concentration using a nanodrop, followed by the addition of SDS sampling buffer and heating at 95 °C for 10 min. Samples were loaded and run on a gel block based on the determined sample concentration, and then electrotransferred onto a 0.45 μm PVDF membrane. […] After washing three times with TBST, proteins were visualised and scanned by enhanced chemiluminescence using the ChemiDoc XRS imaging system (Bio-Rad, Hercules, CA, USA).

[4] = system: (p-Smad2/3)/(Smad2/3); test: Western blot p-Smad2/3 / Smad2/3 in HaCaT; type: cell-based, Human; details: SC17-2 20 μg/mL, 24 h (16 h elsewhere in the source), n = 3
Procedure: as §1

[5] = system: TGF-β; test: Western blot TGF-β in HaCaT; type: cell-based, Human; details: SC17-2 20 μg/mL, 24 h (16 h elsewhere in the source), n = 3
Procedure: as §1

[6] = system: TGF-α mRNA; test: qPCR TGF-α mRNA in HaCaT; type: cell-based, Human; details: SC17-2 20 μg/mL, n = 6
Procedure: (§2) HaCaT cells were treated as above, washed twice with PBS and lysed using Trizol for 5 min, after which 200 μL of chloroform was added and shaken vigorously for 30 s. The cells were centrifuged for 15 min to separate the upper and lower layers (12,500 g, 4 °C). The supernatant was vortexed with an equal amount of isopropanol and left to stand for 10 min, and then centrifuged again under the same conditions to retain only the white precipitate. 500 μL of 75 % ethanol was added and centrifuged (12000 rpm, 4 °C, 10 min) and the operation was repeated twice. Afterwards, DEPC was used for dissolution and the concentration was determined by nanodrop. One-step reverse transcription to DNA was performed using 5 × MIX, after which primers and 2 × MIX were added and placed. qPCR was performed (LightCycler96, F. Hoffmann-La Roche, Swiss).

[7] = system: EGF mRNA; test: qPCR EGF mRNA in HaCaT; type: cell-based, Human; details: SC17-2 20 μg/mL, n = 6
Procedure: as §2

[8] = system: TGF-β1 mRNA; test: qPCR TGF-β1 mRNA in HaCaT; type: cell-based, Human; details: SC17-2, HaCaT
Procedure: as §2

[9] = biological target: T1, EGFR (Homo sapiens, UniProt P00533); test: Surface plasmon resonance (SPR); type: binding
Procedure: The analysis of biomolecular interactions was conducted utilising a Biacore S200 biosensor system (S200, Biacore, China). Briefly, the EGFR (20 μg/mL) was immobilised by amine coupling on the surface of a CM5 sensor chip (29104988, Cytiva, China) with a resonance unit (RU) of approximately 2000, using a sodium acetate buffer (10 mM, pH 4) as the immobilisation solution. In order to assess the affinity of SC17-2 for the epidermal EGFR, SC17-2 was injected at a flow rate of 30 μL/min onto a chip containing immobilised EGFR. The injection of SC17-2 was carried out at a flow rate of 30 μL/min at concentrations ranging from 5 to 500 μg/mL. The RU were recorded. The binding dissociation constants (KD) were determined using BiacoreTM Insight software.

[10] = biological target: T1, EGFR; test: Bio-Layer Interferometry (BLI); type: binding
Procedure: Prepare 20 μg/mL of EGFR protein solution (solvent 0.1 % PBS-Tween), and different concentrations of SC17-2 (5, 10, 20 μg/mL) dissolved using PBST. Biotin was added and incubated at room temperature for 30 min according to the instructions, and the corresponding probes were soaked in PBST for 10 min. The assay was carried out according to the BLI predefined procedure (Octet K2, ForteBio, USA), followed by calculations using the accompanying software, and graphpad was used for graphing.

[11] = Circular dichroism spectroscopy; type: physicochemical

**Q.** What does the source list for “SFMPLSIPIMCKMLSKC [SC17-2, peptide of the pleskein family from the skin transcriptome of the frog Nanorana parkeri, made by solid-phase synthesis]”?
**A.** HSF migration [1]: notable enhancement; reduction of wound area vs control, significance ([2]; SC17-2 20 μg/mL, at times other than day 9): significantly promote the reduction of wound area; reduction of wound area vs control on day 9 ([2]; SC17-2 20 μg/mL, day 9): non-significant difference; final reduction in wound area, dose dependence ([2]; after 13 days of treatment): metrologically dependent on SC17-2; wound area ([2]; day 3, SC17-2 20 μg/mL): 77.84 ± 3.34%; wound area ([2]; day 5, SC17-2 20 μg/mL): 54.43 ± 2.53%; wound area compared with VEGF ([2]; day 13, SC17-2 20 μg/mL vs VEGF): significantly smaller; wound area ([2]; day 13, SC17-2 20 μg/mL): 2.65 ± 0.72%; wound area reduction, ratio to saline-treated control ([2]; days 3 and 5, SC17-2 20 μg/mL): ~1.3 fold; ERK phosphorylation [3]: significantly increased ERK phosphorylation; Smad2/3 phosphorylation [4]: significantly increased Smad2/3 phosphorylation; expression of TGF-β [5]: significantly increase the expression of TGF-β; mRNA expression of TGF-α [6]: significantly elevated; mRNA expression of EGF [7]: significantly elevated; TGF-β1 expression (qPCR) [8]: simultaneous increase; EGFR binding, dose dependence [9]: binds in a dose-dependent manner; EGFR binding, dose dependence [10]: binds in a dose-dependent manner; secondary structure composition ([11]; 0 mM (H2O) and 60 mM SDS): primarily of random coil and β-sheet structures, with only trace amounts of γ-turn and α-helix structures; secondary structure, change with SDS ([11]; 0 mM (H2O) vs 60 mM SDS): remained largely unchanged

Reference: paper PMC12957798, “Adaptation of plateau frog peptide: From antimicrobial to angiogenic and proliferative functions” (Journal of Advanced Research, 2025)
